In patent US12116388B2, “Amylin receptor agonists” (Novo Nordisk A/S, priority 2022, dated 2024):
Starred links: 1 amine or outer side, 2 acyl side, 3 side chain; linkers in the order of their positions; H or OH if unused. Residues, ends and D or L forms follow the SMILES beside them. *: point of attachment. C18 diacid = O=C(O)CCCCCCCCCCCCCCCCC(=O)*; γGlu = O=C(O)[C@H](CCC(=O)[*:2])N[*:1]

What was measured:
[1] = molecular target: T1, human calcitonin receptor (hCTR) (Homo sapiens, UniProt P30988); experiment: Human calcitonin receptor (hCTR) in vitro potency assay, CRE-luciferase reporter in BHK cells; type: cell-based; settings: BHK hCTR/CRE-Luc cells, 3 hours incubation, assay buffer with 1% ovalbumin; read-out: hCalcR potency, EC50
T1 construct: host or cells: BHK (Baby Hamster Kidney), Hollex-1 cell line
T1 sequence (P30988 25-474): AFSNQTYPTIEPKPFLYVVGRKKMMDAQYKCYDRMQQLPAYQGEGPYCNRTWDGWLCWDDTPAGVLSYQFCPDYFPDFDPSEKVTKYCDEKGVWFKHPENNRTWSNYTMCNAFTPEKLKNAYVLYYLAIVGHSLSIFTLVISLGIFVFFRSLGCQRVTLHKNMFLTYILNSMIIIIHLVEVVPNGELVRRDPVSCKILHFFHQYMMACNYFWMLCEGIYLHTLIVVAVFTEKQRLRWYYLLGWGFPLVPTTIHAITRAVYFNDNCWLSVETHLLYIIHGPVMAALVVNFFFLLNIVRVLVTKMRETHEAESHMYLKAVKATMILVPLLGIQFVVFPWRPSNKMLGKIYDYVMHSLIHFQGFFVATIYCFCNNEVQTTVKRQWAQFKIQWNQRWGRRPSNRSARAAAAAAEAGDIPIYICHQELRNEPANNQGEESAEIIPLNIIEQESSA
Description: (§1) Activation of hCTR leads to increased cellular concentrations of CAMP. Consequently, transcription is activated by promotors containing multiple copies of the CAMP response element (CRE). It is thus possible to measure hCTR activity using a CRE-luciferase reporter gene introduced into Baby Hamster Kidney (BHK) cells co-expressing the hCTR.
(§2) A BHK cell line was stably transfected with the human calcitonin receptor (a) and a CRE-responsive luciferase (CRE-Luc) reporter gene according to methods known to the person skilled in the art (Hollex-1 cell line, obtained from Zymogenetics described in U.S. Pat. No. 5,622,839).
(§3) Cells stocks were prepared by culturing of the stably transfected BHK hCTR/CRE-Luc cell line in growth medium consisting of DMEM (Gibco, 31966-021) supplemented with 10% FBS (Gibco, 16140-071), 1% Pen/Strep (Gibco, 15140-122), 0.5 mg/mL Geneticin (Gibco, 10131-027) and 250 nM Methotrexate (Sigma, A6770). Cells at approximately 80-90% confluence were washed once with PBS (Gibco 14190-094) and loosened from the cell flasks with Versene (Gibco, 15040-033) or TrypLE™ (Gibco, 12605-010). After centrifugation, the cell pellet was dissolved and diluted to approximately 2.5×10E6 cells/mL in Recovery™ Cell Culture Freezing Medium (Gibco, 12648-010). Cells were aliquoted and stored at −180° C. until use.
(§4) The assay buffer consisted of DMEM without phenol red (Gibco, 11880-028) supplemented with 1× GlutaMAX (Gibco, 35050-038), 10 mM HEPES (Gibco, 15630-056) and 1% (w/v) ovalbumin (Sigma, A5503).
(§5) To perform the assay, BHK hCTR/CRE-Luc cells were thawed, washed once in PBS and seeded in 40 μL growth medium in a white 384-well culture plate (PerkinElmer, 6007688) at a cell density of 4.000 cells/well on the day before the experiment. The plate was incubated over night at 37° C. in 5% CO2. On the day of the assay, cells were washed once in assay buffer. Serial dilutions (7-fold dilutions, 7 concentrations Pr. compound and one well containing only assay buffer) of comparator compounds and amylin analogues were performed in assay buffer often starting from approximately 10 nM in 96-well plates and 30 μL of each concentration added to the 384-well assay plate with cells. The assay plate was incubated for 3 hours at 37° C. in 5% CO2 after which 30 μL SteadyLite Plus (PerkinElmer, 6066759) was added to each well. The assay plate was sealed, incubated at room temperature with gentle shaking for 5 minutes followed by 30 minutes incubation without shaking while protected from light. Luminescence was detected on a luminescence plate reader e.g. a Synergy 2 (BioTek).

[2] = molecular target: T2, human amylin receptor (hAMYR3) (Homo sapiens, UniProt O60896+P30988); experiment: Human amylin receptor (hAMYR3) in vitro potency assay, CRE-luciferase reporter in BHK cells; type: cell-based; settings: BHK hAMYR3/CRE-Luc cells, 3 hours incubation, assay buffer with 1% ovalbumin
T2 construct: host or cells: BHK (Baby Hamster Kidney), Hollex-1 cell line further transfected with RAMP3
Description: as §1, with “hAMYR3” for “hCTR”, “cAMP.” for “CAMP.”, “hAMYR3.” for “hCTR.”
as §2, with “5,622,839). The cell line was further transfected with human receptor modifying protein 3 (RAMP3) using standard methods. This turns the human calcitonin receptor into a human amylin-3(a) receptor.” for “5,622,839).”
as §3, with “hAMYR3/CRE-Luc” for “hCTR/CRE-Luc”, “10131-027), 0.4 mg/mL Hygromycin (Invitrogen, 10687010)” for “10131-027)”
as §4
as §5, with “hAMYR3/CRE-Luc” for “hCTR/CRE-Luc”

T2 sequence (O60896 24-148, one chain of several): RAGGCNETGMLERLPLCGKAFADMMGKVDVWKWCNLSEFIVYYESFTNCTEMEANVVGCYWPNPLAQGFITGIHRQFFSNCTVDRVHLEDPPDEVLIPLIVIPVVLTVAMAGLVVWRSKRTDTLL

| EC50 [1] [pM] | EC50 [2] [pM] | Structure (SMILES) |
| --- | --- | --- |
| 1.99 | 1.88 | CC[C@H](C)[C@H](NC(=O)[C@H](C)NC(=O)CNC(=O)[C@H](Cc1ccccc1)NC(=O)[C@@H]1CCCN1C(=O)[C@H](CC(=O)O)NC(=O)[C@H](CO)NC(=O)[C@H](CO)NC(=O)[C@H](Cc1c[nH]cn1)NC(=O)[C@H](Cc1c[nH]cn1)NC(=O)[C@H](CC(C)C)NC(=O)[C@H](Cc1ccccc1)NC(=O)[C@H](CCC(=O)O)NC(=O)[C@H](C)NC(=O)[C@H](CC(C)C)NC(=O)[C@H](CCCNC(=N)N)NC(=O)[C@H](CCC(N)=O)NC(=O)[C@@H](NC(=O)[C@H](CCC(N)=O)NC(=O)[C@H](C)NC(=O)[C@@H](NC(=O)[C@H](C)NC(=O)[C@H](CC(C)C)NC(=O)[C@H](CC(N)=O)NC(=O)[C@H](CO)NC(=O)[C@H](C)NC(=O)CC[C@H](NC(=O)CCCCCCCCCCCCCCCCC(=O)O)C(=O)O)[C@@H](C)O)[C@@H](C)O)C(=O)N1CCC[C@H]1C(=O)N[C@@H](CO)C(=O)N[C@@H](CO)C(=O)N[C@H](C(=O)N[C@@H](CC(=O)O)C(=O)N[C@H](C(=O)NCC(=O)N1CCC[C@H]1C(=O)N[C@@H](CC(=O)O)C(=O)N[C@H](C(=O)N1CCC[C@H]1C(N)=O)[C@@H](C)O)C(C)C)[C@@H](C)O [Compound 12, N^1-[(4S)-4-carboxy-4-(17-carboxyheptadecanoylamino)butanoyl]-[Ala1,Ser2,Leu4,Ala7,Gln8,Glu14,His17,Asp21,Pro22,Pro27,Asp31,Pro34,Asp35,Pro37]-human amylin] ({C18 diacid-γGlu}-ASNLATAQTQRLAEFLHHSSDPFGAIPSSTDVGPDTP-NH2) |
| 1.58 | 1.36 | CC[C@H](C)[C@H](NC(=O)[C@@H]1CCCN1C(=O)CNC(=O)[C@H](Cc1ccccc1)NC(=O)[C@H](CC(N)=O)NC(=O)[C@H](CC(=O)O)NC(=O)[C@H](CO)NC(=O)[C@H](CO)NC(=O)[C@H](Cc1c[nH]cn1)NC(=O)[C@H](Cc1c[nH]cn1)NC(=O)[C@H](CC(C)C)NC(=O)[C@H](Cc1ccccc1)NC(=O)[C@H](CCC(=O)O)NC(=O)[C@H](C)NC(=O)[C@H](CC(C)C)NC(=O)[C@H](CCCNC(=N)N)NC(=O)[C@H](C)NC(=O)[C@@H](NC(=O)[C@H](CCC(N)=O)NC(=O)[C@H](C)NC(=O)[C@@H](NC(=O)[C@H](CO)NC(=O)[C@H](CC(C)C)NC(=O)[C@H](CO)NC(=O)CNC(=O)[C@H](C)NC(=O)CC[C@H](NC(=O)CCCCCCCCCCCCCCCCC(=O)O)C(=O)O)[C@@H](C)O)[C@@H](C)O)C(=O)N[C@@H](CC(C)C)C(=O)N1CCC[C@H]1C(=O)N1CCC[C@H]1C(=O)N[C@H](C(=O)N[C@@H](CC(=O)O)C(=O)N[C@H](C(=O)NCC(=O)N[C@@H](CO)C(=O)N[C@@H](CC(N)=O)C(=O)N[C@H](C(=O)N1CCC[C@H]1C(N)=O)[C@@H](C)O)C(C)C)[C@@H](C)O [Compound 13, N^1-[(4S)-4-carboxy-4-(17-carboxyheptadecanoylamino)butanoyl]-[Ala1,Gly2,Ser3,Leu4,Ser5,Ala7,Gln8,Ala10,Glu14,His17,Asp21,Pro25,Pro28,Pro29,Asp31,Pro37]-human amylin] ({C18 diacid-γGlu}-AGSLSTAQTARLAEFLHHSSDNFGPILPPTDVGSNTP-NH2) |
